Assay results: the Kinase Knowledgebase extract (Sharma et al. 2016)
pIC50: −log10 of the molar value.

Target: PIK3CA (human) (UniProt P42336)
Test: Assessment of PIK3CA Kinase Activity

Sequence of PIK3CA (human) (P42336 whole entry, looked up): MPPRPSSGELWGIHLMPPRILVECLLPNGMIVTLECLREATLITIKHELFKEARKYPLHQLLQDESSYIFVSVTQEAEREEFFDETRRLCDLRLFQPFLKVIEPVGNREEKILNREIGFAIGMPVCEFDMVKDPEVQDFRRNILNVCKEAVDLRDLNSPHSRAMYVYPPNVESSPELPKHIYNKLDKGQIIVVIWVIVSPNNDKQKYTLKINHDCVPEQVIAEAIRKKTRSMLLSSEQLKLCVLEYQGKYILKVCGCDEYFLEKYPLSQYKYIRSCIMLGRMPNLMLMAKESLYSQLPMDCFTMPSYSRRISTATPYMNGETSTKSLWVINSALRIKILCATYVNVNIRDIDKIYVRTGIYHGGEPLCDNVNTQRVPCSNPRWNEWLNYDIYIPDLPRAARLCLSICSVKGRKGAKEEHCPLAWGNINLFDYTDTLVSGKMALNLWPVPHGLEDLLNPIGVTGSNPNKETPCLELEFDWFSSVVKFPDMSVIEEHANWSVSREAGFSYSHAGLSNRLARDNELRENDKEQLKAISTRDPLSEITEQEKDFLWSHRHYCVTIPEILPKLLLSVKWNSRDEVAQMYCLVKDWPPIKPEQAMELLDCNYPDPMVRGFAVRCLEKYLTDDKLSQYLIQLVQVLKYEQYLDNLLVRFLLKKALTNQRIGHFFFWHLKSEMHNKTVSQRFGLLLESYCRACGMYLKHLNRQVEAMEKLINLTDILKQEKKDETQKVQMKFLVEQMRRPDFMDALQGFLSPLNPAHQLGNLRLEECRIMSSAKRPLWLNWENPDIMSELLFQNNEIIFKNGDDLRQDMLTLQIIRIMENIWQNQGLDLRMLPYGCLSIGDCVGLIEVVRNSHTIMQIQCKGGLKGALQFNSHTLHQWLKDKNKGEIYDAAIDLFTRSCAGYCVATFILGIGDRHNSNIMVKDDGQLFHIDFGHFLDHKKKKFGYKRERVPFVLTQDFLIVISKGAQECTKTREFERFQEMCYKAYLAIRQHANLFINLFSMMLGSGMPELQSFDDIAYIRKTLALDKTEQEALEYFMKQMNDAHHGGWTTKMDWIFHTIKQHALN

Compound	pIC50
N#Cc1ccc2c(c1)-c1nc(-c3nc(N)nn3CC(F)(F)F)cn1CCO2	> 6.00
Cc1nc(-c2cn3c(n2)-c2ccc(-c4cnn(CCO)c4)cc2OCC3)n(C)n1	> 6.00
Fc1ccc(-n2ncnc2-c2cn3c(n2)-c2cnc(NCc4ncc[nH]4)cc2OCC3)c(F)c1	> 6.00
CC(C)N1CC(NC(=O)c2ccc3c(c2)-n2nc(-c4ncnn4C(C)C)cc2CCO3)C1	> 6.00
CC(C)n1ncnc1-n1cc2c(n1)-c1ccc(Br)cc1OCC2	> 6.00
CS(=O)(=O)CCN1CCC(CO)(c2ccc3c(c2)-c2nn(-c4ncnn4-c4ccc(F)cc4F)cc2CCO3)CC1	> 6.00
CC(=O)Nc1ccc(-c2ccc3c(c2)OCCn2cc(-c4nc(C)nn4C(C)C)nc2-3)cn1	> 6.00
CC(C)n1nc(N)nc1-c1cn2c(n1)-c1ccc(-c3cnn(CCO)c3)cc1OCC2	> 6.00
COc1ccc(CNc2cc3c(cn2)-c2nc(-c4nc(C)nn4CC(F)(F)F)cn2CCO3)cc1OC	> 6.00
Nc1ccc2c(c1)OCCn1cc(-c3ncnn3CC(F)(F)F)nc1-2	> 6.00
CC(C)n1nc(N)nc1-c1cn2c(n1)-c1cc(C(F)(F)F)ccc1OCC2	> 6.00
Clc1ccccc1-n1ncnc1-c1cn2c(n1)-c1cc(-c3ccccc3)ccc1OCC2	> 6.00
COC(=O)c1ccc2c(c1)OCCn1cc(-c3ccccc3C(C)C)nc1-2	> 6.00
Fc1ccc(-n2ncnc2-c2cn3c(n2)-c2cnc(NCCCn4ccnc4)cc2OCC3)c(F)c1	> 6.00
CC(C)n1nc(N)nc1-c1cn2c(n1)-c1cc(-c3ccccc3)ccc1OCC2	> 6.00
COCc1nc(-c2cn3c(n2)-c2ccc(C)cc2OCC3)n(C(C)C)n1	> 6.00
CC(C)n1nc(CO)nc1-c1cn2c(n1)-c1ccccc1OCC2	> 6.00
CC(C)n1ncnc1-c1cc2n(n1)-c1cc(CN3CCNC(=O)C3)ccc1OCC2	> 6.00

Compound	pIC50
COCc1nc(-c2cn3c(n2)-c2ccc(-c4cnn(CC(C)(C)O)c4)cc2OCC3)n(C(C)C)n1	> 6.00
CC(C)n1ncnc1-c1cc2n(n1)-c1cc(C3CN(Cc4ccncc4)C3)ccc1OCC2	> 6.00
Cc1nc(-c2cn3c(n2)-c2cnc(N4CCCC4CN4CCCCC4)cc2OCC3)n(CC(F)(F)F)n1 (centres undefined)	> 6.00
CC(C)N1CCN(C(=O)c2ccc3c(c2)-c2nc(-c4ncnn4CC(F)(F)F)cn2CCO3)CC1	> 6.00
CC(C)n1nc(N)nc1-c1cn2c(n1)-c1ccc(-c3cnn(CC(C)(C)O)c3)cc1OCC2	> 6.00
CC(C)n1nc(CO)nc1-c1cn2c(n1)-c1ccc(-c3cnn(CC(C)(C)O)c3)cc1OCC2	> 6.00
CC(C)n1ncnc1-c1cc2n(n1)-c1cc(C3CNC3)ccc1OCC2	> 6.00
CC(C)[C@@H](Oc1ccc2c(c1)OCCn1cc(-c3ncnn3CC(F)(F)F)nc1-2)C(N)=O	> 6.00
C[C@H](Oc1ccc2c(c1)OCCn1cc(-c3ncnn3C(C)(C)C)nc1-2)C(N)=O	> 6.00
O=C(CO)N1CCC(c2ccc3c(c2)-n2nc(-c4ncnn4CC(F)(F)F)cc2CCO3)CC1	> 6.00
C[C@@H]1CN(C(=O)c2ccc3c(c2)-c2nc(-c4ncnn4CC(F)(F)F)cn2CCO3)C[C@H](C)N1	> 6.00
CC(C)n1ncnc1-c1cc2n(n1)-c1cc(C3CN(C(=O)CO)C3)ccc1OCC2	> 6.00
NC(=O)C1(Oc2ccc3c(c2)OCCn2cc(-c4ncnn4CC(F)(F)F)nc2-3)CC1	> 6.00
Cn1ccnc1C(O)CNc1cc2c(cn1)-c1nc(-c3ncnn3-c3ccc(F)cc3F)cn1CCO2 (centres undefined)	> 6.00
COC[C@H](Nc1ccc2c(c1)OCCn1cc(-c3ncnn3CC(F)(F)F)nc1-2)C(N)=O	> 6.00
COC(=O)c1ccc2c(c1)OCCn1cc(-c3cccc(C(C)C)c3)nc1-2	> 6.00
CC(C)N(CCO)C(=O)c1cn2c(n1)-c1ccc(C3CCN(CC(=O)N(C)C)CC3)cc1OCC2	> 6.00
OCCN1CCC(c2ccc3c(c2)-c2nn(-c4ncnn4-c4ccc(F)cc4F)cc2CCO3)CC1	> 6.00

Continued, values first:

pIC50	Compound
> 6.00	CC(C)n1ncnc1-c1cn2c(n1)-c1ccc(C3CN(CCS(=O)(=O)N(C)C)C3)cc1OCC2
> 6.00	CC(C)n1ncnc1-c1cn2c(n1)-c1ccc(OCC3(N)COC3)cc1OCC2
> 6.00	CC(C)n1ncnc1-c1cn2c(n1)-c1ccc(-c3cnc(CC(C)(C)O)[nH]3)cc1OCC2
> 6.00	CC(C)n1ncnc1-c1cn2c(n1)-c1cc(-c3ccc(=O)[nH]c3)ncc1OCC2
> 6.00	CONC(=O)c1ccc2c(c1)OCCn1cc(-c3ncnn3C(C)C)nc1-2
> 6.00	CC(C)N1CCC(c2ccc3c(c2)OCCn2cc(-c4ncnn4C(C)C)nc2-3)CC1
> 6.00	CC(C)n1ncnc1-c1cn2c(n1)-c1cnc(Cl)cc1OCC2
> 6.00	CC(C)n1ncnc1-c1cn2c(n1)-c1ccc(CC(N)=O)cc1OCC2
> 6.00	CC(C)n1ncnc1-c1cn2c(n1)-c1cnc(N3CCC(CO)CC3)cc1OCC2
> 6.00	CC(C)n1ncnc1-c1cn2c(n1)-c1cc(N3CCNC(=O)C3)ncc1OCC2
> 6.00	CC(C)n1ncnc1-c1cn2c(n1)-c1cnc(N3C[C@H](O)C[C@H]3C(N)=O)cc1OCC2
> 6.00	CO[C@H]1CCN(c2cc3c(cn2)-c2nc(-c4ncnn4C(C)C)cn2CCO3)[C@@H]1C(N)=O
> 6.00	CCOc1ccc2c(c1)OCCn1cc(-c3nc(C)nn3C(C)C)nc1-2
> 6.00	CC(C)n1ncnc1-c1cn2c(n1)-c1ccc(N[C@@H](C)C(N)=O)cc1OCC2
> 6.00	CC(C)n1ncnc1-c1cn2c(n1)-c1cnc(N3CC[C@H](O)[C@H]3C(N)=O)cc1OCC2
> 6.00	CNc1ccc2c(n1)OCCn1cc(-c3ncnn3C(C)C)nc1-2
> 6.00	Cc1nc(-c2ccc3c(c2)OCCn2cc(-c4ncnn4C(C)C)nc2-3)cn1C

pIC50	Compound
> 6.00	CC(C)n1ncnc1-c1cn2c(n1)-c1ccc([C@H](C)C(N)=O)cc1OCC2
> 6.00	CC(C)n1ncnc1-c1cn2c(n1)-c1ccc(N3CC(C(N)=O)C3)nc1OCC2
> 6.00	CC(C)n1ncnc1-c1cn2c(n1)-c1cnc(N3C4CCC3C(=O)NC4)cc1OCC2 (centres undefined)
> 6.00	CC(C)n1ncnc1-c1cn2c(n1)-c1cnc(OCC(N)=O)cc1OCC2
> 6.00	CC(C)n1ncnc1-c1cn2c(n1)-c1cc(NCC(O)CO)ncc1OCC2 (centres undefined)
> 6.00	Cc1nc(-c2cn3c(n2)-c2cnc(N4CC[C@@H](O)[C@H]4C(N)=O)cc2OCC3)n(C(C)C)n1
> 6.00	CC(C)n1ncnc1-c1cn2c(n1)-c1ccc(N3CCN(C)CC3)nc1OCC2
> 6.00	Cc1nc(-c2cn3c(n2)-c2cnc(N4C[C@@H](F)C[C@H]4C(N)=O)cc2OCC3)n(C(C)C)n1
> 6.00	CC(C)n1ncnc1-c1cn2c(n1)-c1cnc(N3CCC[C@H]3C(N)=O)cc1OCC2
> 6.00	CC(C)n1ncnc1-c1cn2c(n1)-c1ccc(N3CCCCC3C(N)=O)cc1OCC2 (centres undefined)
> 6.00	CNc1cc2c(cn1)-c1nc(-c3ncnn3C(C)C)cn1CCO2
> 6.00	CC(C)n1ncnc1-c1cn2c(n1)-c1ccc(-c3cn(CCO)cn3)cc1OCC2
> 6.00	CNC(=O)CN1CCC(c2ccc3c(c2)OCCn2cc(-c4ncnn4C(C)C)nc2-3)CC1
> 6.00	CC(C)n1ncnc1-c1cn2c(n1)-c1cnc(N3C[C@H](F)C[C@H]3C(N)=O)cc1OCC2
> 6.00	CC(C)n1ncnc1-c1cn2c(n1)-c1ccc(C3CCN(C(=O)C(C)(C)O)CC3)cc1OCC2
> 6.00	CC(C)n1ncnc1-c1cn2c(n1)-c1ccc(C3CN(C(=O)C4(N)CC4)C3)cc1OCC2
